Where two headings read alike, the source gives them in different places.
Key:
[1] = biological target: T1, PhnO enzyme (Escherichia coli, UniProt P16691, P2A)
Procedure: The apparent Km of PhnO for the substrate acetyl-CoA was determined in similar experiments. After several attempts to obtain end point kinetics, it was determined that the turnover number was too low to be reliable at AMPA concentrations of about 30 mM and enzyme amounts of about 1-10 ng. An alternative approach was tried using tritium labeled acetyl-CoA. The specific activity of the label was about 40× higher than with [^14C], providing a gain in sensitivity that allowed for the determination of the apparent Km of PhnO for Acetyl-CoA. The [^3H]-acetyl-CoA (Amersham, Inc.) specific activity was 360 mCi/mg or 250 μCi/ml. […] This was accomplished by adjusting the concentration of KH2PO4 buffer (pH 5.5) to 40 mM with a flow rate of 1 ml per minute over an AX100 weak anion exchange column. Each sample was reacted with PhnO and 30 mM AMPA for five minutes at 37° C. and quenched with 100 mM NaOAc pH 4.4 in ethanol, then analyzed by HPLC. [^3H]-acetyl-CoA substrate ranged from 25 micromolar to 1.3 mM in each reaction along with about 5 ng PhnO, 50 mM Tris pH 7.5, 1 mM MnCl2, 1 mM MgCl2, and 30 mM AMPA. Samples were analyzed by HPLC to determine the amounts of N-[^3H]-acetyl-AMPA produced, and [^3H]-acetyl-CoA remaining.

[2] = biological target: T2, purified PhnO protein (Escherichia coli, UniProt P16691, P2A); experiment: AMPA transacylase acyl-CoA acyl donor specificity, HPLC; format: biochemical, E. coli; settings: for [^14C]-AMPA % Conversion: 5 minutes 30° C.; for % Activity: 1 mM acetyl-CoA = 100% reference
T2 construct: made in house; host or cells: E. coli JM101 carrying pMON15032 (recA promoter, nalidixic acid induction)
Procedure: PhnO was purified from a one liter Luria Bertani broth culture of E. coli JM101 expressing a recombinant phnO gene from pMON15032 after nalidixic acid induction for three hours at 37° C. Cells were harvested by centrifugation and resuspended in 40 ml cold Tris buffer (0.1 M Tris-HCl pH 8) and placed on ice. The cell suspension was brought to 1 mM DTT and 0.5 mM PMSF. The suspension was lysed by 2 passages through a prechilled French pressure cell at 1,100 psi, centrifuged at 12,000 g (10,000 rpm in an Sorvall SA600 rotor) for 40 min at 4° C., then placed on ice. The cleared supernatants were poured into fresh 15 ml polypropylene tubes. The samples were split again into two equal portions and maintained at −80° C. until used further for purification of PhnO protein. 20 microliters of the soluble fraction was assayed for enzyme activity using the HPLC method described above in Example 2, except after terminating the assay with acid addition, the sample was stored at −80° C. A Sephacryl S200 column was prepared according to the manufacturers' instructions and equilibrated with a solution containing 20 mM Tris pH 8.0 and 0.5 mM MgCl2. The entire total soluble extract was layered over the top of the column bed after thawing on ice. Forty 9 ml fractions were collected from the column eluate, and thirty microliters of each fraction was analyzed by western blot using anti-PhnO antiserum after resolution on a 15% SDS-PAGE gel. Also, thirty microliters of each fraction was analyzed for AMPA acyl transferase activity using the method described in Example 2. […] These were represented by fractions 7 through 19 in this example, and were combined into a 100 ml volume, distributed into […] each containing 10 ml volumes, and stored at −80° C. for further use.
Anion exchange chromatography was used to determine the elution pattern of PhnO away from other contaminating proteins that co-elute during the Sephacryl S200 fractionation. One tube from the combined PhnO positive fractions was thawed on ice and injected into a 5/5 Mono-Q column pre-equilibrated with buffers A (one liter of 20 mM Tris-HCl pH 8.0 Mili-Q distilled deionized water) and B (one liter of 20 mM Tris-HCl pH 8.0, 1 M NaCl). The sample containing PhnO active protein was injected into the column and one milliliter fractions were collected. The column was washed for five minutes with a flow rate of 1.8 ml per minute Buffer A after loading the PhnO containing sample. At five minutes, Buffer B was added to the flow volume at 0.5 ml per minute for four minutes. Buffer B was ramped up to 22% of the flow volume at 10 minutes, 30% at 12 minutes, 36% at 13 minutes, 41% at 14 minutes, 46% at 15 minutes, 74% at 16 minutes, and 100% at 16 minutes through 22 minutes, at which point Buffer B flow was terminated and Buffer A was reinitiated at 100% to equilibrate the column. Ten microliter volumes from individual fractions collected from the Mono-Q column were analyzed by western blot and for transacylase activity as described in Example 2. […] Samples of this purified PhnO protein were used to determine enzyme's acyl donor substrate specificity.
Enzyme reactions were prepared as follows. […] A assay premix was prepared from which 45 microliters was used in each 100 microliter reaction. This 45 microliter premix sample consisted of 40 microliters distilled and deionized water, 2 microliters of 50 mM MgCl2, and 3 microliters of 1.3 mM [^14C]-AMPA (115,392 dpm per microliter). Reactions were initiated by mixing 40 microliters of 125 mM Tris-HCl pH 8.0, […] protein sample and 10 microliters acyl-CoA acyl donor compound in a microcentrifuge tube at room temperature. Each acyl-CoA acyl donor compound was prepared as a stock solution of 1 mM, 5 mM or 10 mM stocks. Each tube was then mixed with 45 microliters of the assay premix containing the [^14C]-AMPA […] substrate, mixed gently and transferred to a 30° C. water bath for 5 minutes. […]

[3] = test system: Wheat immature embryos; experiment: Wheat embryo germination assay; format: in vivo; settings: for Germinating root length / Germinating shoot length: ten days
Procedure: Wheat immature embryos were exposed to different concentrations of AMPA and N-acetyl-AMPA in a wheat embryo germination assay. MMSO base media was prepared containing 40 grams per liter maltose, 2 grams per liter GELRITE™, MS salts, and vitamins. Salts, vitamins, and maltose were dissolved in 3500 ml water and the pH was adjusted to 5.8. 500 ml was dispensed into a separate bottle along with 1 gram of GELRITE™ and autoclaved for 17 minutes. After the medium had cooled to about 45° C., AMPA or N-acetyl-AMPA was added to a defined concentration. The mixture was poured into six square Sundae cups under sterile conditions and allowed to solidify.
Immature wheat embryos were isolated from twenty day old seedlings (after anther formation) and inoculated into each MMSO media. Each Sundae cup contained nine immature embryo's. Three separate plates were used for each concentration of AMPA (0, 0.1, 0.15, 0.2, 0.25, 0.3, and 1.0 mM) or N-acetyl-AMPA (0, 0.1, 0.3, 1.0, and 3.0 mM). Sundae cups were incubated for ten days and the length of roots and shoots were determined and compared.

[4] = test system: Tobacco callus; experiment: Tobacco callus growth on plates with AMPA or N-acetyl AMPA; format: cell-based, Nicotiana tabacum cv. "Samsun"; settings: plates with 0.1 mM or 0.4 mM, up to three weeks
Procedure: Tobacco callus was generated from leaf pieces of wild type Nicotiana tabacum cv. “Samsun” tobacco on MS104 plates (MS salts 4.3 g/l, sucrose 30 g/l, B5 vitamins 500X 2 ml/l, NAA 0.1 mg/l, and Bacto Agar […]). Callus tissue was applied to plates with or without AMPA and with or without N-acetyl AMPA. Plates contained AMPA or N-acetyl AMPA at concentrations of 0.1 mM or 0.4 mM. Plates were incubated for up to three weeks and monitored periodically.

[5] = test system: AMPA acyltransferase activity; experiment: AMPA acyltransferase HPLC assay of bacterial lysates; format: biochemical; settings: lysates of induced E. coli JM101 transformants
[6] = biological target: T1, PhnO enzyme; remark: listed apart in the source
Procedure: The ability of the enzyme to produce N-acetyl AMPA from a mixture containing acetyl-CoA and AMPA across a range of pH values was determined. The reactions were carried out in MES/MOPS/Tricine buffer equilibrated to a pH value from 4.5 to 9.0, with actual pH values ranging from 5.2 through 9.0. Briefly, 95 microliters of an appropriate buffer was mixed with 100 microliters of 2×assay mix as described in example 4, and 5 microliters of desalted E. coli lysate containing approximately 400 ng/microliter PhnO protein.

[7] = any concentration tested (0.1-3.0 mM)

Molecule: CC(=O)SCCNC(=O)CCNC(=O)[C@H](O)C(C)(C)COP(=O)(O)OP(=O)(O)OC[C@H]1O[C@@H](n2cnc3c(N)ncnc32)[C@H](O)[C@@H]1OP(=O)(O)O [Acetyl-CoA]
- Velocity ([1]; [Acetyl-CoA] 25 micromolar, 30 mM AMPA): 34
- Velocity ([1]; [Acetyl-CoA] 50 micromolar): 66
- Velocity ([1]; [Acetyl-CoA] 75 micromolar): 94
- Velocity ([1]; [Acetyl-CoA] 100 micromolar): 125
- Velocity ([1]; [Acetyl-CoA] 125 micromolar): 150
- Velocity ([1]; [Acetyl-CoA] 150 micromolar): 173
- Velocity ([1]; [Acetyl-CoA] 175 micromolar): 193
- Velocity ([1]; [Acetyl-CoA] 200 micromolar): 219
- Velocity ([1]; [Acetyl-CoA] 225 micromolar): 240
- Velocity ([1]; [Acetyl-CoA] 250 micromolar): 259
- Velocity ([1]; [Acetyl-CoA] 375 micromolar): 339
- Velocity ([1]; [Acetyl-CoA] 390 micromolar): 287
- Velocity ([1]; [Acetyl-CoA] 520 micromolar): 331
- Velocity ([1]; [Acetyl-CoA] 650 micromolar): 352
- Velocity ([1]; [Acetyl-CoA] 780 micromolar): 372
- Velocity ([1]; [Acetyl-CoA] 910 micromolar): 397
- Velocity ([1]; [Acetyl-CoA] 1040 micromolar): 411
- Velocity ([1]; [Acetyl-CoA] 1170 micromolar): 425
- Velocity ([1]; [Acetyl-CoA] 1300 micromolar): 434
- apparent Vmax ([1]; acetyl-CoA substrate, Lineweaver-Burk plot): about 824 U/mg protein
- Km ([1]; read-out: apparent Km of PhnO for acetyl-CoA as a substrate, 30 mM AMPA, Lineweaver-Burk plot of Table 9 data): 375 to 390 µM
- [^14C]-AMPA % Conversion ([2]; acyl donor 0.1 mM): 79.2%
- % Activity ([2]; acyl donor 0.1 mM): 79.2%
- [^14C]-AMPA % Conversion ([2]; acyl donor 0.5 mM): 98.7%
- % Activity ([2]; acyl donor 0.5 mM): 98.7%
- [^14C]-AMPA % Conversion ([2]; acyl donor 1 mM): 100.00%
- % Activity ([2]; acyl donor 1 mM): 100.00%

Molecule: N-acetyl-amino-methyl-phosphonate [N-acetyl AMPA]
- Germinating root length ([3]; 0.10 mM): 5.9 ± 1.4 cm
- Germinating shoot length ([3]; 0.10 mM): 12.0 ± 2.4 cm
- Germinating root length ([3]; 0.30 mM): 5.2 ± 1.2 cm
- Germinating shoot length ([3]; 0.30 mM): 11.7 ± 3.5 cm
- Germinating root length ([3]; 1.00 mM): 5.4 ± 1.5 cm
- Germinating shoot length ([3]; 1.00 mM): 12.2 ± 3.2 cm
- Germinating root length ([3]; 3.00 mM): 5.9 ± 1.6 cm
- Germinating shoot length ([3]; 3.00 mM): 11.2 ± 2.6 cm
- inhibition of root elongation [3, 7]: only mildly inhibitory
- inhibition of shoots [3, 7]: not inhibitory
- concentration with no significant effects to immature embryo germination ([3]; in vivo): less than 3.0 mM
- growth of tobacco callus tissue [4]: not inhibited

B1: CTP-PhnO peptide: chloroplast transit peptide fused to PhnO (SEQ ID NO:12) (protein)
chain: MASSMLSSATMVASPAQATMVAPFNGLKSSAAFPATRKANNDITSITSNGGRVNCMQVWPPIGKKKFETLSYLPDLTDSGGRVNCMQAMAACELRPATQYDTDAVYALICELKQAEFDHHAFRVGFNANLRDPNMRYHLALLDGEVVGMIGLHLQFHLHHVNWIGEIQELVVMPQARGLNVGSKLLAWAEEEARQAGAEMTELSTNVKRHDAHRFYLREGYEQSHFRFTKAL
- AMPA acyltransferase activity of cell lysates [5]: retain full enzymatic acyltransferase activity

B2: PhnO: AMPA acyltransferase protein encoded by the phnO gene within the E. coli phn operon (protein)
chain: MAACELRPATQYDTDAVYALICELKQAEFDHHAFRVGFNANLRDPNMRYHLALLDGEVVGMIGLHLQFHLHHVNWIGEIQELVVMPQARGLNVGSKLLAWAEEEARQAGAEMTELSTNVKRHDAHRFYLREGYEQSHFRFTKAL
- pH of optimum PhnO transacylase activity ([6]; AMPA and acetyl-CoA as substrates): ~8.0 pH
- N-Acetyl CoA ([6]; Buffer pH 5.0): 222 nmol
- Velocity ([6]; Buffer pH 5.0): 22.2 nmole/min/microgram
- % Turnover ([6]; Buffer pH 5.0 (mock reaction pH 5.23)): 3.7%
- N-Acetyl CoA ([6]; Buffer pH 5.5): 234 nmol
- Velocity ([6]; Buffer pH 5.5): 23.4 nmole/min/microgram
- % Turnover ([6]; Buffer pH 5.5 (mock reaction pH 5.62)): 3.9%
- N-Acetyl CoA ([6]; Buffer pH 6.0): 252 nmol
- Velocity ([6]; Buffer pH 6.0): 25.2 nmole/min/microgram
- % Turnover ([6]; Buffer pH 6.0 (mock reaction pH 5.92)): 4.2%
- N-Acetyl CoA ([6]; Buffer pH 6.5): 798 nmol
- Velocity ([6]; Buffer pH 6.5): 79.8 nmole/min/microgram
- % Turnover ([6]; Buffer pH 6.5 (mock reaction pH 6.47)): 13.3%
- N-Acetyl CoA ([6]; Buffer pH 7.0): 1620 nmol
- Velocity ([6]; Buffer pH 7.0): 162.0 nmole/min/microgram
- % Turnover ([6]; Buffer pH 7.0 (mock reaction pH 7.0)): 27.0%
- N-Acetyl CoA ([6]; Buffer pH 7.5): 1920 nmol
- Velocity ([6]; Buffer pH 7.5): 192.0 nmole/min/microgram
- % Turnover ([6]; Buffer pH 7.5 (mock reaction pH 7.48)): 32.0%
- N-Acetyl CoA ([6]; Buffer pH 8.0): 2058 nmol
- Velocity ([6]; Buffer pH 8.0): 205.8 nmole/min/microgram
- % Turnover ([6]; Buffer pH 8.0 (mock reaction pH 8.05)): 34.3%
- N-Acetyl CoA ([6]; Buffer pH 8.5): 2010 nmol
- Velocity ([6]; Buffer pH 8.5): 201.0 nmole/min/microgram
- % Turnover ([6]; Buffer pH 8.5 (mock reaction pH 8.46)): 33.5%
- N-Acetyl CoA ([6]; Buffer pH 9.0): 2034 nmol
- Velocity ([6]; Buffer pH 9.0): 203.4 nmole/min/microgram
- % Turnover ([6]; Buffer pH 9.0 (mock reaction pH 9.0)): 33.9%
